From US20250368666A1, “INDAZOLE COMPOUNDS” (TYRA BIOSCIENCES, INC., priority 2022, published 2025) come the findings set out here.

Where a name gives a salt, the structure may show the parent alone. Read-outs that look alike come from different tables or passages of the source.

The target of test [1] is T1, FGFR1 (Homo sapiens, UniProt P11362).
T1 construct: made in house; host or cells: E. coli (BL21-derived), T7 phage
As to the kind of experiment: Kinase binding assay (kinase-tagged T7 phage, affinity beads, qPCR), Kd. The procedure, abridged:
(§1)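 First, phage lysates carrying tagged kinase are made in E. coli at 32° C. Next, they are combined with blocked biotin-ligand streptavidin beads and compound at 0.9% final DMSO. Finally, eluted kinase is measured by qPCR and Kd is fitted with the Hill equation.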

For test [2], the target named is T2, FGFR2 (Homo sapiens, UniProt P21802).
T2 construct: made in house; host or cells: E. coli (BL21-derived), T7 phage
The description is as above. A digest of the protocol:
as §1

Test [3] has as its target T3, FGFR3 (Homo sapiens, UniProt P22607).
T3 construct: made in house; host or cells: E. coli (BL21-derived), T7 phage
Described as above. A digest of the protocol: as §1

Test [4] has as its target T4, FGFR3 (V555M) (Homo sapiens, UniProt P22607, V555M).
T4 construct: made in house; host or cells: E. coli (BL21-derived), T7 phage
The test is described as above. The procedure, abridged: as §1

Test [5] concerns the target T5, FGFR4 (Homo sapiens, UniProt P22455).
T5 construct: made in house; host or cells: E. coli (BL21-derived), T7 phage
Described as above. The procedure, abridged: as §1

Test [6] deals with KATO-III cell line (FGFR2 amplification). As to the kind of experiment: Cancer cell line cell viability assay (Cell Titer-Glo), 72 hr. The class given is cell-based. The settings on record: Homo sapiens. The procedure, abridged:
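Intracellular ATP was measured by Cell Titer-Glo 2.0 luminescence after cells were incubated with compound dilutions (top 3 μM, 4-fold, 9 doses). Values were expressed relative to DMSO-treated cells and IC50 was calculated from a variable-slope dose-response curve.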
Background: In ATP-based viability assays light output follows the ATP content of the culture.

Test [7] relates to KG-1 cell line (FGFR 1-fusion). Described as above. The settings on record: Homo sapiens. The class given is cell-based. The procedure, abridged:
(§2)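 Cells were seeded at 5,000–20,000 per well, then exposed to a 9-point, 4-fold dilution series from 3 μM top concentration in triplicate at 37° C. Exposure was 120 h for MDA-MB-453 and HuH7 and 72 h for KG-1 and RT112/84. Viability was read as ATP by Cell Titer-Glo 2.0, expressed as % of DMSO control, and fitted by 4-parameter IC50.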

Test [8] has as its system RT112/84 cell line (FGFR3-fusion). Described as above. The following applies: Homo sapiens. The test is classed as cell-based. The procedure, abridged: as §2
Test [9] concerns HuH7 cell line (FGF19 amplification). The test is described as follows: Cancer cell line cell viability assay (Cell Titer-Glo), 120 hr. The test is classed as cell-based. The following applies: Homo sapiens, Huh-7. The source says:
Experimental Purpose: To detect the change of intracellular ATP by Cell Titer-Glo® and to evaluate the inhibitory effect of the compounds on cancer cell lines by determining the in vitro IC50 value of the compounds.
Cell Titer-Glo® 2.0 Luminescent cell viability assay reagent was purchased from Promega (Madison, WI). KG-1, KATO-III, and MDA-MB-453 cell lines were purchased from American Type Culture Collection (Manassas, VA). RT112/84 cell line was purchased from Millipore-Sigma (St. Louis, MO). HuH7 cells were purchased from Seikisui Xenotech (Kansas City, KS). RT112/84 and MDA-MB-453 cells were cultured in RPMI1640 media supplemented with 10% fetal bovine serum. KG-1 and KATO-III cell lines were cultured in IMDM media supplemented with 20% FBS. HuH7 cells were cultured in IMDM media supplemented with 10% FBS. Cultures were maintained at 37° C. in a humidified atmosphere of 5% CO2 and 95% air.
Cell Viability Assay Procedure: Cells were plated in 96-well clear bottom/white plates (Corning #3903) at a range of densities depending on the optimal assay window (5,000-20,000 cells/well in […] of media), incubated overnight. The next day, test compound DMSO stock solutions were made at 10 mM and […] final concentration. Compounds were then added to cells in a 9-dose, 4-fold dilution series starting at 3 μM with an HP 300e Digital Dispenser (each dose was applied in triplicate). DMSO was backfilled to each well up to 301 nL total volume of test compound+DMSO, and a total of 301 nL DMSO was added to a control/no test compound well in triplicate. The cells in cell culture plates were incubated with the compounds at 37° C. and 5% CO2 for 72 hours-120 hours depending on the cell line. Then 50 μl of Cell Titer Glo 2.0 reagent was added to each well of the cell culture plates. The contents were covered from light and mixed on an orbital shaker at room temperature for minimum of 10 min. Luminescence was recorded by a Clariostar Plus Microplate Reader (BMG Labtech, Cary, NC). Cells were assessed as a percentage of DMSO only treated control cells. Curves were plotted and IC50 values were calculated using the GraphPad Prism 9 program based on a sigmoidal dose-response equation (log (inhibitor) vs. response—Variable slope, 4-parameter).

The mark [10] stands for this setting: V555M mutant, read-out: FGFR3 (V555M) (Kd nM).
Setting [11] is: KG-1, KG-1 cell line (FGFR1-fusion).
The mark [12] stands for this setting: RT112/84, RT112/84 cell line (FGFR3-fusion).

T1 sequence (P11362 22-822): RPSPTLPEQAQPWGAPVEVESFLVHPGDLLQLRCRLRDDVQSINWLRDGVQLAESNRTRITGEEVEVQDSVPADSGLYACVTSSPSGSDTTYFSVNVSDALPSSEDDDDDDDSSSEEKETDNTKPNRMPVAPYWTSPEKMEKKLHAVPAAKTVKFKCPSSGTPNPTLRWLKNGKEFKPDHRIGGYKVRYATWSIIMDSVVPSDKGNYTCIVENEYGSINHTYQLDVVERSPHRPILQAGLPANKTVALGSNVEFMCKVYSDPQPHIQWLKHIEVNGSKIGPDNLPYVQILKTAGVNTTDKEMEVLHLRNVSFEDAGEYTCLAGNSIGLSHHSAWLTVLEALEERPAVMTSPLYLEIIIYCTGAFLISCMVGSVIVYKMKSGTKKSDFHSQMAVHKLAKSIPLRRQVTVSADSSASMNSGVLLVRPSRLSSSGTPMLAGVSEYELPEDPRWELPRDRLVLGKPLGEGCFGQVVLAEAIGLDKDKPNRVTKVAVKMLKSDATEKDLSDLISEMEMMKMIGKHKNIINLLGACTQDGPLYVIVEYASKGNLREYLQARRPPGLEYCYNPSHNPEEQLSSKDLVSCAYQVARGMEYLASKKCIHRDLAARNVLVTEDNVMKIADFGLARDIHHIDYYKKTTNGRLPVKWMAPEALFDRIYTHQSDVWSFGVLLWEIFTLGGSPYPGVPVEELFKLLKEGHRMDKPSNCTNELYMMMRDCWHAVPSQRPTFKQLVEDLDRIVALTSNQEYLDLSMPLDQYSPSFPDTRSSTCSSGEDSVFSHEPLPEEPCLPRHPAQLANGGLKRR
T2 sequence (P21802 22-821): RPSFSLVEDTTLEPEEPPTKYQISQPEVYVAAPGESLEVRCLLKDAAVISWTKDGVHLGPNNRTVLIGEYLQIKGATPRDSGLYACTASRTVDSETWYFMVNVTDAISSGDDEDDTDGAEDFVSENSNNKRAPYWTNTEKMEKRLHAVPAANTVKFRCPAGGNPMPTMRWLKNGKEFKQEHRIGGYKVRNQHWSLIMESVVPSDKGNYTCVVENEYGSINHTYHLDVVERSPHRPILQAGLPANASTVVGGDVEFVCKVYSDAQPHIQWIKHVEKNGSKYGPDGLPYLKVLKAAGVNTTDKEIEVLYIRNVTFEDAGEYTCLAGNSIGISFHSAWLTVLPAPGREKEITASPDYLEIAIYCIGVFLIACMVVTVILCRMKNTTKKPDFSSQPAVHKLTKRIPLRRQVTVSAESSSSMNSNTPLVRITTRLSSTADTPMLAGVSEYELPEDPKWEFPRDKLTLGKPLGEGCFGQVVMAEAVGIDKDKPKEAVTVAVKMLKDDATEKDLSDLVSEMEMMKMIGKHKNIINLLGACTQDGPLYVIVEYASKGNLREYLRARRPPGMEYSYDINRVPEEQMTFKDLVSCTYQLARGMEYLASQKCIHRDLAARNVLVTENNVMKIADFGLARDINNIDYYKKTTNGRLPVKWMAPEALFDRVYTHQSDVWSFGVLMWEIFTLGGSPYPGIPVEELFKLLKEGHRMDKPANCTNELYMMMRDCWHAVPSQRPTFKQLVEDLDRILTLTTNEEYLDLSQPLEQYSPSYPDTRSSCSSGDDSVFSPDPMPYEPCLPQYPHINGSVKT
T3 sequence (P22607 23-806): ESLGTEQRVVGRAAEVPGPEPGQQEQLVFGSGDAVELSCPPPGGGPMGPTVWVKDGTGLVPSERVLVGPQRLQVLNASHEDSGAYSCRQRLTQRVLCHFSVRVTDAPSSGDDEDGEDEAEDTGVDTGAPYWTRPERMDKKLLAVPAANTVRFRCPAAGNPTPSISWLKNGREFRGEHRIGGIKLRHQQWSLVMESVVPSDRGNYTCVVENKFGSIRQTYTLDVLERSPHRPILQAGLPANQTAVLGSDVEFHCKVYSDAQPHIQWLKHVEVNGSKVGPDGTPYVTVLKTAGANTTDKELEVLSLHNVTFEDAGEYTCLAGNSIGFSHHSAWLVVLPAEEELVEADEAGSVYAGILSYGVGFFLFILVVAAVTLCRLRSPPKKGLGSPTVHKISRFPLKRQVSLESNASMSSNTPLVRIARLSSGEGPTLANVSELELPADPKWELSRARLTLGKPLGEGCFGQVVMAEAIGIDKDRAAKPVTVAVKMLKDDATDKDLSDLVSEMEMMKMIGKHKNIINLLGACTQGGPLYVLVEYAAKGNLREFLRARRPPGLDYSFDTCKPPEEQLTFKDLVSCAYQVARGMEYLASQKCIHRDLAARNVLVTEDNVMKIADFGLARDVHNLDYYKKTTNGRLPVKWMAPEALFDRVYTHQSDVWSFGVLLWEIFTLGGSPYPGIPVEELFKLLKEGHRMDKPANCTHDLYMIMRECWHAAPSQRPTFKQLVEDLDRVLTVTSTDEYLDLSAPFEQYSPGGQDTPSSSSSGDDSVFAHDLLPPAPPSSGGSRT
T4 sequence (P22607 23-806 V555M): as the sequence (P22607 23-806) above, with V533M counted along it
T5 sequence (P22455 22-802): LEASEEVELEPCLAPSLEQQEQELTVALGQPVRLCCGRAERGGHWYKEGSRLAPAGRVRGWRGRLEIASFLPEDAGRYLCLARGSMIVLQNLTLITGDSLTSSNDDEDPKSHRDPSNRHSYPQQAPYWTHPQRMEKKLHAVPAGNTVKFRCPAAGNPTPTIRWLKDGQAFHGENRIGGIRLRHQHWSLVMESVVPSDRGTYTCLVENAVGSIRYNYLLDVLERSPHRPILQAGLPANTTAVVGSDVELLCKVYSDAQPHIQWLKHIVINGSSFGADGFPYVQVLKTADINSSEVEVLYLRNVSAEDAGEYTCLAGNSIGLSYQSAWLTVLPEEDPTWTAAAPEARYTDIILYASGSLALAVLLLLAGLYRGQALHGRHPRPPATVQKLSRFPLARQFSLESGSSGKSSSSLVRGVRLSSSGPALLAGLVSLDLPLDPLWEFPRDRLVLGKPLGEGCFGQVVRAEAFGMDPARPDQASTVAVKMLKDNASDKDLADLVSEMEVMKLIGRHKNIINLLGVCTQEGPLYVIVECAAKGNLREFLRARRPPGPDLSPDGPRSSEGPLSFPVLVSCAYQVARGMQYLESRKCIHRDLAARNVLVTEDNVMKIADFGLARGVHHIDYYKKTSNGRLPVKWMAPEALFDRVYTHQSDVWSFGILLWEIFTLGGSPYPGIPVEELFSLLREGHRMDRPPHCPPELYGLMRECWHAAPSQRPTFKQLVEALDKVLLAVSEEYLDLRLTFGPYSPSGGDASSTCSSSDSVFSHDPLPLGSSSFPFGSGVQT

Consider `COP(=O)(CC1(C)CN(c2ncc(-c3n[nH]c4ccc(O[C@H](C)c5c(Cl)cncc5Cl)cc34)cc2F)C1)OC` [Example 215, (R)-dimethyl ((1-(5-(5-(1-(3,5-dichloropyridin-4-yl)ethoxy)-1H-indazol-3-yl)-3-fluoropyridin-2-yl)-3-methylazetidin-3-yl)methyl)phos-phonate], for which the Kd in [1], in test [2] (FGFR2 (Kd nM)), in [3], in test [4] and in [5] was 1 to 50 nM each time. Also, the 50% inhibitory concentration (IC50) (in general, the point on the concentration scale where inhibition reaches its midpoint) in test [6] lay in the range of 50 to 200 nM; in [7] (KG-1 cell line (FGFR1-fusion)) it was 50 to 200 nM; in test [8] (RT112/84 cell line (FGFR3-fusion)), 0.1 to 50 nM.

Take `C[C@H]1CN(C2(C)CN(c3ncc(-c4n[nH]c5ccc(O[C@H](C)c6c(Cl)cncc6Cl)cc45)cc3F)C2)CCO1` [Example 216, (S)-4-(1-(5-(5-((R)-1-(3,5-dichloropyridin-4-yl)ethoxy)-1H-indazol-3-yl)-3-fluoropyridin-2-yl)-3-methylazetidin-3-yl)-2-methylmorpholine]: the Kd in [1] (read-out: FGFR1 (Kd nM)), in test [2] (read-out: FGFR2 (Kd nM)), in [3] (read-out: FGFR3 (Kd nM)), in test [4] (setting [10]) and in test [5] (read-out: FGFR4 (Kd nM)) was 1 to 50 nM each time. Besides, the 50% inhibitory concentration (IC50) was 50 to 200 nM in test [6] (KATO III), 50 to 200 nM in [7] (setting [11]) and 0.1 to 50 nM in test [8] (setting [12]).

`C[C@@H](Oc1ccc2[nH]nc(-c3cnc(N4CC(C)(N5CC6CC(C5)O6)C4)c(F)c3)c2c1)c1c(Cl)cncc1Cl` [Example 217, 3-(1-(5-(5-((R)-1-(3,5-dichloropyridin-4-yl)ethoxy)-1H-indazol-3-yl)-3-fluoropyridin-2-yl)-3-methylazetidin-3-yl)-6-oxa-3-aza-bicyclo[3.1.1]hep-tane]: the dissociation constant Kd in [1] (read-out: FGFR1 (Kd nM)), in test [2] (read-out: FGFR2 (Kd nM)), in test [3] (read-out: FGFR3 (Kd nM)), in test [4] (setting [10]) and in [5] (read-out: FGFR4 (Kd nM)) was 1 to 50 nM throughout. The half-maximal inhibitory concentration (IC50) in [6] (KATO III) lay within 0.1 to 50 nM; in test [7] (setting [11]) it was 50 to 200 nM; in [8] (setting [12]) it was 0.1 to 50 nM.

With `C[C@@H](Oc1ccc2[nH]nc(-c3cnc(N4CC(C)(N5C[C@@H]6C[C@H]5CO6)C4)c(F)c3)c2c1)c1c(Cl)cncc1Cl` [Example 218, (1S,4S)-5-(1-(5-(5-((R)-1-(3,5-dichloropyridin-4-yl)ethoxy)-1H-indazol-3-yl)-3-fluoropyridin-2-yl)-3-methylazetidin-3-yl)-2-oxa-5-aza-bicyclo[2.2.1]hep-tane], the Kd in test [1] (read-out: FGFR1 (Kd nM)), in test [2] (read-out: FGFR2 (Kd nM)), in [3] (read-out: FGFR3 (Kd nM)), in test [4] (setting [10]) and in test [5] (read-out: FGFR4 (Kd nM)) was 1 to 50 nM throughout. Further, the IC50 in test [6] (KATO III), in [7] (setting [11]) and in [8] (setting [12]) was 0.1 to 50 nM each time.

Consider `C[C@@H](Oc1ccc2[nH]nc(-c3ccc(N4CC(C)(N5CC6CC(C5)O6)C4)nc3)c2c1)c1c(Cl)cncc1Cl` [Example 222, 3-(1-(5-(5-((R)-1-(3,5-dichloropyridin-4-yl)ethoxy)-1H-indazol-3-yl)pyridin-2-yl)-3-methylazetidin-3-yl)-6-oxa-3-aza-bicyclo[3.1.1]hep-tane], for which the Kd in test [1] (read-out: FGFR1 (Kd nM)), in test [2] (read-out: FGFR2 (Kd nM)), in [3] (read-out: FGFR3 (Kd nM)), in [4] (setting [10]) and in [5] (read-out: FGFR4 (Kd nM)) was 1 to 50 nM throughout. Also, the IC50 in [6] (KATO III), in [7] (setting [11]) and in [8] (setting [12]) was 0.1 to 50 nM each time.

For `C[C@@H](Oc1ccc2[nH]nc(-c3cnc(N4CC(C)(N5C[C@H]6C[C@@H]5CO6)C4)c(F)c3)c2c1)c1c(Cl)cncc1Cl` [Example 223, (1R,4R)-5-(1-(5-(5-((R)-1-(3,5-dichloropyridin-4-yl)ethoxy)-1H-indazol-3-yl)-3-fluoropyridin-2-yl)-3-methylazetidin-3-yl)-2-oxa-5-aza-bicyclo[2.2.1]hep-tane], the equilibrium dissociation constant (Kd) in [1] (read-out: FGFR1 (Kd nM)), in [2] (read-out: FGFR2 (Kd nM)), in test [3] (read-out: FGFR3 (Kd nM)), in [4] (setting [10]) and in test [5] (read-out: FGFR4 (Kd nM)) was 1 to 50 nM throughout. Further, the IC50 in [6] (KATO III) was 0.1 to 50 nM; in test [7] (setting [11]), 50 to 200 nM; in test [8] (setting [12]) it was 0.1 to 50 nM.

`C=CCNC1(C)CN(c2ccc(-c3n[nH]c4ccc(O[C@H](C)c5c(Cl)cncc5Cl)cc34)cn2)C1` [Example 232, (R)-N-ally1-1-(5-(5-(1-(3,5-dichloropyridin-4-yl)ethoxy)-1H-indazol-3-yl)pyridin-2-yl)-3-methylazetidin-3-amine]: the dissociation constant (Kd) in test [1] (read-out: FGFR1 (Kd nM)), in [2] (read-out: FGFR2 (Kd nM)), in [3] (read-out: FGFR3 (Kd nM)), in test [4] (setting [10]) and in test [5] (read-out: FGFR4 (Kd nM)) was 1 to 50 nM each time. Moreover, the IC50 in test [6] (KATO III) was 0.1 to 50 nM; in test [7] (setting [11]), 50 to 200 nM; in test [8] (setting [12]), 0.1 to 50 nM.

Consider `CCNC1(C)CN(c2ncc(-c3n[nH]c4cc(OC)c(O[C@H](C)c5c(Cl)cncc5Cl)cc34)cc2C#N)C1` [Example 341, (R)-5-(5-(1-(3,5-Dichloropyridin-4-yl)ethoxy)-6-methoxy-1H-indazol-3-yl)-2-(3-(ethylamino)-3-methylazetidin-1-yl)nicotinonitrile HCl], for which the Kd in test [1] (read-out: FGFR1 (Kd nM)), in test [2] (read-out: FGFR2 (Kd nM)), in test [3] (read-out: FGFR3 (Kd nM)), in [4] (setting [10]) and in test [5] (read-out: FGFR4 (Kd nM)) was 1 to 50 nM throughout. Also, the figures for the concentration for half-maximal inhibition (IC50) in test [6] (KATO III), in test [7] (setting [11]) and in [8] (setting [12]) were 50 to 200 nM, 0.1 to 50 nM and 0.1 to 50 nM, respectively.

For `COc1cc2[nH]nc(-c3cc(C#N)c(N4CC(C)(NCC(C)C)C4)nn3)c2cc1O[C@H](C)c1c(Cl)cncc1Cl` [Example 342, (R)-6-(5-(1-(3,5-dichloropyridin-4-yl)ethoxy)-6-methoxy-1H-indazol-3-yl)-3-(3-(isobutylamino)-3-methylazetidin-1-yl)pyridazine-4-carbonitrile], the Kd in [1] (read-out: FGFR1 (Kd nM)), in test [2] (read-out: FGFR2 (Kd nM)), in test [3] (read-out: FGFR3 (Kd nM)) and in test [5] (read-out: FGFR4 (Kd nM)) was 1 to 50 nM each time. Further, the IC50 in [9] is 50 to 200 nM.

In the case of `COc1cc2[nH]nc(-c3cc(C#N)c(N4CC(C)(NCC5CC5)C4)nn3)c2cc1O[C@H](C)c1c(Cl)cncc1Cl` [Example 347, (R)-3-(3-((cyclopropyl-methyl)amino)-3-methylazetidin-1-yl)-6-(5-(1-(3,5-dichloropyridin-4-yl)ethoxy)-6-methoxy-1H-indazol-3-yl)pyridazine-4-carbonitrile], the Kd in test [1] (read-out: FGFR1 (Kd nM)), in test [2] (read-out: FGFR2 (Kd nM)), in test [3] (read-out: FGFR3 (Kd nM)) and in test [5] (read-out: FGFR4 (Kd nM)) was 1 to 50 nM in each case. Moreover, the IC50 in test [9] was 0.1 to 50 nM.

Turning to `COc1cc2[nH]nc(-c3cnc(N4CCC(C)(NCC5CC5)CC4)c(C#N)c3)c2cc1O[C@H](C)c1c(Cl)cncc1Cl` [Example 411, (R)-2-(4-((cyclo-propylmethyl)amino)-4-methylpiperidin-1-yl)-5-(5-(1-(3,5-dichloropyridin-4-yl)ethoxy)-6-methoxy-1H-indazol-3-yl)nicotinonitrile], the IC50 in test [9] was in the range of 0.1 to 50 nM.
